Our source for the mass density and refractive index values is the NIST ThermoML archive (doi:10.1016/j.jct.2014.06.029).

± gives the expanded uncertainty stated by the source.

The conditions of data set [1]: 298 K; 101.33 kPa; Crystal; X-ray diffraction.
Data set [2] can be described thus: refractive index (Na D-line) (dimensionless); mn = molality of the nth substance listed, in mol/kg. To be noted: 293.15 K; 101 kPa; Liquid; Standard Abbe refractometry; m1 = 0.02.

By mass density is commonly meant the mass of a sample divided by its volume. With `CC(=O)C(=O)[O-].[Na+]` [sodium pyruvate], in data set [1], the mass density was 1749 ± 9 kg/m3. For orientation: refractive index means a measure of how strongly the sample bends light. For the compound `CC(=O)C(=O)[O-].[Na+]` [sodium pyruvate] + O, in data set [2], the refractive index is on record as 1.3308 ± 0.0007.
